Data from the NIST ThermoML archive (doi:10.1016/j.jct.2013.05.047).
“And” between values parts separate entries of the source, which are not always exact repeats. Equal entries are not always repeated.

What was measured:
[1] = Molar enthalpy of transition or fusion; details: Crystal; DSC
[2] = for vapor or sublimation pressure: Closed cell (Static) method

Oc1ccc(Br)cc1 [4-bromophenol]
Details	Molar enthalpy of transition or fusion [kcal/mol]
[1]	4.04

vapor or sublimation pressure, [2]
Details	Crystal	Liquid
285.34 K	0.00035 kPa	–
287.33 K	0.00046 kPa	–
289.29 K	0.00057 kPa	–
291.33 K	0.00073 kPa	–
293.31 K	0.00092 kPa	–
295.29 K	0.00116 kPa	–
297.25 K	0.00146 kPa	–
299.23 K	0.00182 kPa	–
301.2 K	0.00229 kPa	–
303.18 K	0.00286 kPa	–
303.2 K	–	0.00555 kPa
305.19 K	0.00358 kPa	–
305.2 K	–	0.00661 kPa
307.17 K	0.00441 kPa	–
307.18 K	–	0.00784 kPa
309.12 K	0.00541 kPa and 0.0054 kPa	–
309.17 K	–	0.00932 kPa
311.05 K	0.00664 kPa	–
311.16 K	–	0.01099 kPa
313.09 K	0.00818 kPa	–
313.12 K	–	0.01288 kPa
315.08 K	0.01002 kPa	–
315.09 K	–	0.01516 kPa
316.89 K	–	0.01755 kPa
317.09 K	0.01219 kPa	–
318.6 K	–	0.02013 kPa
319.01 K	0.01482 kPa	–
320.72 K	–	0.02383 kPa
320.99 K	0.01805 kPa	–
323.03 K	0.02185 kPa	0.02842 kPa
324.98 K	0.02644 kPa	–
325.02 K	–	0.03304 kPa
326.97 K	0.03198 kPa	0.03827 kPa
328.93 K	0.03838 kPa	–
328.95 K	–	0.04429 kPa
330.89 K	–	0.05121 kPa
330.93 K	0.0461 kPa	–
332.9 K	–	0.05904 kPa
334.9 K	–	0.06804 kPa
336.81 K	–	0.07806 kPa
338.78 K	–	0.0882 kPa
340.82 K	–	0.1022 kPa
342.8 K	–	0.1163 kPa
344.73 K	–	0.132 kPa
346.82 K	–	0.1517 kPa
348.66 K	–	0.1712 kPa
350.78 K	–	0.1945 kPa
352.64 K	–	0.2188 kPa
354.73 K	–	0.2475 kPa
356.58 K	–	0.2774 kPa
358.68 K	–	0.3129 kPa
360.5 K	–	0.3497 kPa
362.61 K	–	0.3938 kPa
364.5 K	–	0.4391 kPa
366.58 K	–	0.4925 kPa
368.3 K	–	0.549 kPa
370.51 K	–	0.6102 kPa

Oc1ccc(Cl)cc1 [4-chlorophenol]
Details	Molar enthalpy of transition or fusion [kcal/mol]
[1]	3.35

[2]
Details	Normal melting temperature [°C]	vapor or sublimation pressure [kPa]
273.48 K, Liquid	–	0.00084
273.5 K, Crystal	–	0.00039
275.43 K, Crystal	–	0.00049
275.44 K, Liquid	–	0.00104
277.42 K, Crystal	–	0.00063
277.42 K, Liquid	–	0.00128
279.38 K, Crystal	–	0.00081
279.38 K, Liquid	–	0.00158
281.38 K, Crystal	–	0.00103
281.38 K, Liquid	–	0.00192
283.35 K, Crystal	–	0.0013
283.37 K, Liquid	–	0.00234
285.33 K, Liquid	–	0.00286
285.35 K, Crystal	–	0.00166
287.31 K, Crystal	–	0.00208
287.32 K, Liquid	–	0.00345
289.31 K, Crystal	–	0.00262
289.31 K, Liquid	–	0.00418
291.28 K, Liquid	–	0.00507
291.31 K, Crystal	–	0.00327
293.28 K, Crystal	–	0.00406
293.28 K, Liquid	–	0.00606
295.27 K, Crystal	–	0.00505
295.32 K, Liquid	–	0.00733
297.25 K, Liquid	–	0.00872
297.26 K, Crystal	–	0.00624
299.21 K, Crystal	–	0.00766
299.23 K, Liquid	–	0.01048
301.2 K, Liquid	–	0.01241
301.23 K, Crystal	–	0.00951
303.19 K, Liquid	–	0.01472
303.2 K, Crystal	–	0.01166
305.18 K, Crystal	–	0.01436
305.18 K, Liquid	–	0.01741
307.16 K, Crystal	–	0.01755
307.18 K, Liquid	–	0.02059
309.14 K, Crystal	–	0.02132
309.14 K, Liquid	–	0.02426
311.11 K, Liquid	–	0.02854
311.14 K, Crystal	–	0.02603
313.12 K, Liquid	–	0.03332
315.06 K, Liquid	–	0.03907
317.07 K, Liquid	–	0.04539
319.03 K, Liquid	–	0.05279
321.14 K, Liquid	–	0.06178
323.09 K, Liquid	–	0.07108
325.09 K, Liquid	–	0.08208
327.04 K, Liquid	–	0.09417
329.04 K, Liquid	–	0.1088
331.02 K, Liquid	–	0.1249
Crystal, DTA	43.8	–
